Measured values reported in patent publication US9687459B2, “Aminocyclobutane derivatives, method for preparing same and the use thereof as drugs” (priority 2012, dated 2017).
Values joined by “and” are separate entries in the source; they are usually repeats but may differ in a detail not shown here. Equal values may be shown once. Read-outs that look alike come from different tables or passages of the source.

Key:
[1] = test system: acute inflammatory pain model in the rat; details: for Paw licking % reduction at 40 mg/kg / Paw licking inhibition at 40 mg/kg (in words): 40 mg/kg ip, late phase; for Paw licking MSD (minimum significant dose): ip 15 min before formaldehyde, late phase 22.5-27.5 min
[2] = test system: pre-pulse inhibition of the jolt reflex in the rat; test: Pre-pulse inhibition test for the jolt reflex (PPI); assay type: in vivo; details: FIG. 1
Description: We have already highlighted the importance of normalising the NMDA receptor function, in other words blocking its excessive activity without interfering, or interfering as little as possible, with its normal physiological functioning. As a marker of the interaction between the products of the invention and the normal functioning of the NMDA receptors, we chose the pre-pulse inhibition test for the jolt reflex (PPI). This test represents a measurement of the organism's capacity to filter non-essential information. Non-competitive and competitive antagonists as well as channel blockers reduce PPI in the rat (Depoortere et al., 1999, Behav. Pharmacol., 10, 51-62), such a reduction being considered to be predictive of the psychotomimetic effects of NMDA antagonists in humans.
Protocol: Male rats (Sprague-Dawley Iffa Credo, Les Oncins, France) were placed in 18.4 cm by 8.8 cm diameter cylinders resting on a base below which a piezoelectric accelerometer is fixed to act as a detector of the jolt reaction. This is enclosed in a box with a loudspeaker attached to the ceiling to deliver sound pulses and pre-pulses, and is acoustically isolated (SR LAB, San Diego Instruments, San Diego, USA). All the events are controlled by means of software. […] Three types of sound stimuli (white noise) are delivered; 1) a pulse of 118 dB (P, duration 40 msec); 2) a pre-pulse of 78 dB (duration 20 msec) followed by a pulse of 118 dB (pP); and 3) no pre-pulse or pulse (NP). The interval between the beginning of the pre-pulse and the beginning of the pulse is 100 msec, with background noise at 70 dB. The jolt reaction is recorded for 100 ms, 100 ms after the beginning of the stimulus (pP or NP) by a numerical/analogue acquisition card (12 bits). The session starts with a stimulus-free period of 5 min after which animals are exposed to 10 P (separated on average by 15 s and intended to stabilise the jolt reaction). The reactions recorded with these 10 P are not used for the calculation. After this, 10 P, 10 pP and 3 NP are delivered in a semi-random order with an average interval of 15 s in between. At the end of this pre-test, rats undergo an ip injection of the compounds to be tested or physiological serum as a control and are returned to their cages. The actual test session (similar on every point to the pre-test) is carried out 60 minutes later. The percentage inhibition of the pre-pulse is calculated using data from this test session according to the formula: (median amplitude P−median amplitude pP)×100/(median amplitude P).

[3] = target: T1, recombinant human NMDA receptors constructed from NR1 and NR2B sub-units (Homo sapiens, UniProt Q05586+Q13224); test: Inhibition of NMDA current in Xenopus ovocytes, two electrode voltage clamp; assay type: cell-based
T1 construct: expressed in transfected cells; host or cells: Xenopus laevis oocytes injected with cRNA transcribed from pGEMHE constructs
T1 sequence (Q13224 27-1484, other chains not shown): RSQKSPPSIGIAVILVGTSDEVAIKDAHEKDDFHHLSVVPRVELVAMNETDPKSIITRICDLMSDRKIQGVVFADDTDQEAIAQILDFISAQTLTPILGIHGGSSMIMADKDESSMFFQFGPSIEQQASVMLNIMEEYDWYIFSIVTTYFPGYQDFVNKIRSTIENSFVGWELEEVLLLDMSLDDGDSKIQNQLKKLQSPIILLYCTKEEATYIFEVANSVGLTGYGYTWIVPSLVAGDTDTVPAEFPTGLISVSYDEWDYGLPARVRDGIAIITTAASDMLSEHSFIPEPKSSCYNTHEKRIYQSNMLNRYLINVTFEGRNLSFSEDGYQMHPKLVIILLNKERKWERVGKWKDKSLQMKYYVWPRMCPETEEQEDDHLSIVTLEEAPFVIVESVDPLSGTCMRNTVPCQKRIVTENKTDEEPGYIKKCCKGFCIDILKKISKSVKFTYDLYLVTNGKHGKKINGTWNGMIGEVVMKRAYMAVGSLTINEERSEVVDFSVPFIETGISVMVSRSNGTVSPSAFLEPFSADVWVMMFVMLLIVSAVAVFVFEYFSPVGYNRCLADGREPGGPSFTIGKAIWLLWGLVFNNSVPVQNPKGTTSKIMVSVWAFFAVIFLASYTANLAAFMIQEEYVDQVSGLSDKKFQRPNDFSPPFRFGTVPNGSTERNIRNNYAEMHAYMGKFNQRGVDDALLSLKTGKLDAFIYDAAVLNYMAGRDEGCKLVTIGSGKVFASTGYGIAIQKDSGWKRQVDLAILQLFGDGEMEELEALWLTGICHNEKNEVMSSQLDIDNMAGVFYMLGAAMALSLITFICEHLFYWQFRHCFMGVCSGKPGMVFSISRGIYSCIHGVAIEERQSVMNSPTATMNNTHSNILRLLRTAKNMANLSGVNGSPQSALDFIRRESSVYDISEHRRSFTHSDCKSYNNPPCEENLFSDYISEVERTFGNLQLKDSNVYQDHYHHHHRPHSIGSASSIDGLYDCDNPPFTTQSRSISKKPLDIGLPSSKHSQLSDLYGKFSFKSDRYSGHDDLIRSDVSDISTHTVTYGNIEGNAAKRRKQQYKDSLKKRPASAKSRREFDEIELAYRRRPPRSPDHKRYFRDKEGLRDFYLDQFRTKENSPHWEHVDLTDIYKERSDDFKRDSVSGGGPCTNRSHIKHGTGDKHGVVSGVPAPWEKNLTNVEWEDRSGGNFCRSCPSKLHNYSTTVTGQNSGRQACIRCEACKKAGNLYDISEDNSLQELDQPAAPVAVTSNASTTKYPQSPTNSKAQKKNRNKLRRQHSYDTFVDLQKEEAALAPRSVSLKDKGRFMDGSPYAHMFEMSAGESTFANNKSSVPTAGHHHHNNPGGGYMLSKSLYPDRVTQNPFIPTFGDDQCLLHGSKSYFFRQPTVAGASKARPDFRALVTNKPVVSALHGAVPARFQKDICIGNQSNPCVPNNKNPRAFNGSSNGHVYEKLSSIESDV
Description: We examined the effects of the compounds of the invention on inhibition of the NMDA current in Xenope (Xenopus laevis) expressing recombinant human NMDA receptors constructed from NR1 and NR2B sub-units. The currents produced by stimulation of these receptors by means of endogenous agonists were studied according to the two electrode voltage clamp technique reported by Planells-Cases et al., 2002, J. Pharmacol. Exp. Ther., 302, 163-173.
Protocol: ovocytes were surgically removed from adults xenopes, enzymatically defolliculated and stored at 17° C. in a solution containing: 96 mM of NaCl, 2 mM of KCl, 1 mM of MgCl2, 1.8 mM of CaCl2 and 5 mM of HEPES at pH 7.5 (NaOH) and 50 mg/L of gentamycin (Heusler et al., 2005, Neuropharmacology, 49, 963-976). Complementary DNA (cDNA) coding for the NR1 sub-unit was cloned by PCR using primers targeted for start and end codons in the published sequence (Genebank access number M_007327). cDNA coding for the NR2B sub-unit was synthesised by Eurogentec (Seraing, Belgium) according to the published sequence (gene bank access number NM_000834). The NR1 and NR2B cDNA was then sub-cloned in the pGEMHE high expression carrier for in vitro transcription of cDNA. cRNA coding for NR1 and NR2B was prepared according to the method described by Heusler et al. (already cited). Aliquots of the cRNA solution were injected into the ovocytes ([…] for NR1 and 40-1000 pg/ovocyte for NR2B). Each ovocyte was injected with 100 nL of a solution containing: 4 mM of Na^+BAPTA (pH 7.2) in order to block all residual chlorine currents. After stabilisation, NMDA currents were activated by superfusion of glutamate and glycine each at a concentration of 10 μM. The compounds to be tested were then superfused in a Ringer Ba^++ solution at increasing concentrations in the presence of glutamate and glycine (4 to 5 concentrations were tested per ovocyte). The concentration-response codes obtained are analysed for each ovocyte by non-linear regression and a pIC50 value was calculated. pIC50 designates the negative logarithm of the compound concentration tested needed to reduce the amplitude of the NMDA current by half.

[4] = test system: forced swimming model in the rat; test: Forced swimming test, immobility time; assay type: in vivo; details: for Immobility time % reduction at 20 mg/kg: 20 mg/kg ip; for ED50: ip 30 min before test, dose reducing immobility time by half relative to controls
Description: This height allows the rats to swim or to float without their paws touching the base of the cylinder. 24 hours before the test day, the rats are placed in the cylinder for 15 min, after which time they no longer attempt to escape and remain immobile at the surface. On the test day, the compound to be tested or the carrier is injected (ip) into the animal which is placed in the cylinder 30 min later. The duration of immobility (defined when the rat simply floats and only makes small movements to stay at the surface) is measured with an accuracy of 0.1 s for 5 minutes.

[5] = ovocytes expressing human NR1/NR2B, glutamate and glycine each 10 μM, read-out: Inhibition of NMDA current pIC50 (converted)

| Compound | Paw licking % reduction at 40 mg/kg [1] [%] | Paw licking inhibition at 40 mg/kg (in words) [1] | Paw licking MSD (minimum significant dose) [1] [mg/kg] | IC50 [3, 5] [nM] | Immobility time % reduction at 20 mg/kg [4] [%] | ED50 [4] [mg/kg] | IC50 [3] [nM] | other results |
| --- | --- | --- | --- | --- | --- | --- | --- | --- |
| CCN(CC)C(=O)[C@]1(c2ccccc2)C[C@@H](N)C1 [Compound 1a1, trans-3-amino-N,N-diethyl-1-phenylcyclobutanecarboxamide] | 100 | completely inhibited | 10 | 501 | – | – | – | Reduction in PPI at 20 mg/kg ([2]; 20 mg/kg ip, test 60 min after injection): 30%; PPI reduction at 40 mg/kg (in words) ([2]; 40 mg/kg): modest; Dose from which PPI is disrupted ([2]; ip): ≥ 20 mg/kg |
| CCN(CC)C(=O)[C@]1(c2ccccc2F)C[C@@H](N)C1 [Compound 1b, trans-3-amino-N,N-diethyl-1-(2-fluorophenyl)-cyclobutanecarboxamide] | – | – | – | 501 | – | – | – | – |
| CCN(CC)C(=O)[C@]1(c2cccc(F)c2)C[C@@H](N)C1 [Compound 1c, trans-3-amino-N,N-diethyl-1-(3-fluorophenyl)-cyclobutanecarboxamide] | – | – | – | 158 | 83 | 13 | – | – |
| CCN(CC)C(=O)[C@]1(c2cccc(OC)c2)C[C@@H](N)C1 [Compound 1d, trans-3-amino-N,N-diethyl-1-(3-methoxyphenyl)-cyclobutanecarboxamide] | – | – | – | 398 | – | – | – | – |
| CCN(CC)C(=O)[C@]1(c2cccc(Cl)c2)C[C@@H](N)C1 [Compound 1e, trans-3-amino-N,N-diethyl-1-(3-chlorophenyl)-cyclobutanecarboxamide] | 100 | completely inhibited | 10 | – | 77 | 15 | 79.4 | – |
| CNC1(c2ccccc2Cl)CCCCC1=O (stereo not drawn) [ketamine, reference compound] | – | – | 40 | – | 50 | 20 | 794 | Paw licking % reduction at 40 mg/kg ([1]; 40 mg/kg): 74% and 75%; Effect on PPI at 20 mg/kg (in words) ([2]; 20 mg/kg ip): total disappearance of PPI |
